Source: PMC9476183 (ACS Omega, 2022)
“And” between values parts separate entries of the source, which are not always exact repeats. Equal values may be shown once.

Tests used:
recombinant human CYP1A1 = target: T1, recombinant human CYP1A1 (Homo sapiens, UniProt P04798); experiment: EROD assay, CYP1A1 inhibition; type: biochemical
T1 sequence (P04798 1-512): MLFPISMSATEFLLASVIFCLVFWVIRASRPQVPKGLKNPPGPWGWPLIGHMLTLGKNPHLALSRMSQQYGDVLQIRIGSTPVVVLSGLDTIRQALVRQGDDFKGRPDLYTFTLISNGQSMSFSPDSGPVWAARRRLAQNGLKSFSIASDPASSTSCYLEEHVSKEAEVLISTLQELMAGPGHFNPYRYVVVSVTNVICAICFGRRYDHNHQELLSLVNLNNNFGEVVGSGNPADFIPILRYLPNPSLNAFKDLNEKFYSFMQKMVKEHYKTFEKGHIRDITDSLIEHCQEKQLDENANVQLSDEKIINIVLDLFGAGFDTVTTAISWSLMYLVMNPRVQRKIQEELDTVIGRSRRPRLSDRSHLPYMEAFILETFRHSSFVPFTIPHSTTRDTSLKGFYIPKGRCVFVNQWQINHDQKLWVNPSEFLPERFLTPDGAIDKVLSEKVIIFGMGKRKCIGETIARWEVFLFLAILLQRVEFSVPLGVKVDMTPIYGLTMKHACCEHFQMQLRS

[1] = tested on: myeloid leukemia cell lines; conditions: ref [64],[65]; cited from earlier work
CYP1B1 over CYP1A1 = target: T2, CYP1B1 over CYP1A1 (Homo sapiens, UniProt Q16678); experiment: EROD assay, CYP1B1 inhibition; conditions: human
T2 sequence (Q16678 1-543): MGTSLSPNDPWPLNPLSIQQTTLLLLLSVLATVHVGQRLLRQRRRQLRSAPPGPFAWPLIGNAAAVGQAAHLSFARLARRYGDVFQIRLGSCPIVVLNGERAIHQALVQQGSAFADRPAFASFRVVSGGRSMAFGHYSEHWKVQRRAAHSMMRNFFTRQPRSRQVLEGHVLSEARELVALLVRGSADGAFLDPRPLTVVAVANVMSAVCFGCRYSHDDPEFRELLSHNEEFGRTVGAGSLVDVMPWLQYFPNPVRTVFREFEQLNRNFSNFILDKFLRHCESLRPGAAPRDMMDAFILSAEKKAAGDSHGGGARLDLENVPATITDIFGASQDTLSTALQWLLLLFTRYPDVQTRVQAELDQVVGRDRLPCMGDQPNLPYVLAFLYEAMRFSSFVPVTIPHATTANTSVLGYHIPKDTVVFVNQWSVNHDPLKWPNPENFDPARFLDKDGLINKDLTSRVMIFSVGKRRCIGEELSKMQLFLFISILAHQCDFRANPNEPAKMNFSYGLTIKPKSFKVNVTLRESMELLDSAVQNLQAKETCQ

recombinant human CYP1B1 = target: T3, recombinant human CYP1B1 (Homo sapiens, UniProt Q16678); experiment: EROD assay, CYP1B1 inhibition; conditions: IC50 CYP1B1 ± SD, recombinant human enzyme, EROD assay, triplicate
T3 sequence (Q16678 1-543): T2 sequence (Q16678 1-543)

MDA-MB-231 = conditions: MDA-MB-231, apoptosis mechanism; ref [66]; cited from earlier work
[2] = tested on: orthotopic 4T1 breast cancer models; conditions: by inhibiting tumor-cell platelet aggregation, ref [63]; cited from earlier work
[3] = pH 7.4, selectivity CYP1A1/CYP1B1, ratio of IC50 values

SMILES	IC50 (recombinant human CYP1A1)	cell death [1]	selectivity ratio (CYP1B1 over CYP1A1; [3])	selectivity ratio (CYP1B1 over CYP1A1; pH 7.4, selectivity toward CYP1B1 over CYP1A1, text)	IC50 (recombinant human CYP1B1)	anticancer activity (MDA-MB-231)	breast cancer prevention [2]
O=c1cc(-c2ccccc2)oc2c1ccc1ccccc12 [ANF, α-naphthoflavone]	20 ± 4 nM						
CN(C)CC/C=C1/c2ccccc2Sc2ccc(Cl)cc21 [chlorprothixene]	490 ± 40 nM	induce cell death by apoptosis	6.8	7	72 nM and 70 nM		
COc1ccc(Cl)cc1C(=O)NCCc1ccc(S(=O)(=O)NC(=O)NC2CCCCC2)cc1 [glibenclamide]	> 10000 nM				> 10000 nM		
CC1CCc2c(N3CCC(O)CC3)c(F)cc3c(=O)c(C(=O)O)cn1c23 (stereo not shown) [nadifloxacin]	2360 ± 200 nM		1.61		1460 nM	promising anticancer activity	
CCCSc1nc(N[C@@H]2C[C@H]2c2ccc(F)c(F)c2)c2nnn([C@@H]3C[C@H](OCCO)[C@@H](O)[C@H]3O)c2n1 [ticagrelor]	3450 ± 390 nM		1.22		2810 ± 900 nM		breast cancer prevention activity
